# Assay results as given in patent EP1397353B1, “2-(2,6-DISUBSTITUTED PHENYL)-4-ARYL-5-ALKYL-1,3-OXAZOLINE COMPOUNDS USEFUL AS INSECTICIDES AND ACARICIDES” (Dow AgroSciences LLC, priority 2001, dated 2003).
# Legend:
# Type in all cases: in vivo
# [1] = test system: two-spotted spider mite (Tetranychus urticae); experiment: Insecticidal test for two-spotted spider mite, ovicide method; conditions: for pest or weed control: Tetranychus urticae, read-out: SM, activity against two-spotted spider mite
# Method: Insecticidal test for two-spotted spider mite (Tetranychus urticae)
# Ten adult female two-spotted spider mites were placed on eight 2.2 cm leaf discs of cotton leaf, allowed to oviposit over 24 hours, and thereafter removed. […] Discs were placed on an agar substrate and held at 24 °C and 90% RH for 6 days.
# [2] = test system: Sweetpotato Whitefly (Bemisia tabacia); experiment: Insecticidal test for sweetpotato whitefly (spray on cotton plants); conditions: 200 ppm spray, large nymphs counted after 13 days, rating of % Control; for pest or weed control at 200 ppm: Bemisia, 312 h, read-out: WF, activity at 200 ppm against whitefly
# Method: Insecticidal test for Sweetpotato Whitefly (Bemisia tabacia)
# Four mg of each test compound were dissolved by adding 4 mL of a 90:10 acetone:ethanol solvent mixture to the vial containing the sample compound. This solution was added to 16 mL of water containing 0.05% Tween 20 surfactant to produce 20 mL of a 200 ppm spray solution.
# Five-week-old cotton plants reared in a greenhouse were stripped of all foliage except for the two uppermost true leaves that were greater than 5 cm in diameter. These plants were then placed into a laboratory colony of whiteflies for two days for oviposition by the colony females. All whiteflies were then removed from the test plants with pressurized air. The spray solution was then applied to the test plants with a hand-held syringe fitted with hollow cone nozzle. One mL spray solution was applied to each leaf top and bottom for a total of 4 mL per plant. Four replications of each test compound utilized a total of 16 mL spray solution. Plants were air dried and then placed in a holding chamber (28 °C and 60% RH) for 13 days. Compound efficacy was evaluated by counting, under an illuminated magnifying glass, the number of large nymphs (3rd-4th instar) per leaf
# Percent control based on reduction of large nymphs of a test compound compared to solution-only (no test compound) sprayed plants is reported in Table 1-8.
# [3] = test system: tobacco budworm (Heliothis virescens); experiment: Insecticidal test for tobacco budworm (leaf-dip, cotton cotyledon discs); conditions: dipped cotton cotyledon discs, 2nd instar larvae, 5 days, rating of % Control; for pest or weed control at 400 ppm: Heliothis virescens, 120 h, read-out: TBW, activity at 400 ppm against tobacco budworm
# Method: (§1) Insecticidal test for tobacco budworm (Heliothis virescens), beet armyworm (Spodoptera exigua), and cabbage looper (Trichoplusia ni).
# (§2) To prepare test solution, the test compound was formulated at 400 ppm in 7.5 mL of 2 acetone: 1 tap water. 250 µL of the test solution was pipetted upon the surface of 8 mL of lepidopteran diet (modified Shorey) contained in each of five one-ounce plastic cups (one cup = 1 replication). […] After airdrying, the treated leaf discs were placed individually into one-ounce plastic cups. Each dried, treated cotton cotyledon disc was infested with a 2nd instar tobacco budworm larva, and each cabbage leaf disc was infested with a 2nd instar cabbage looper larva. Cups containing the treated substrates and larvae were capped and then held in a growth chamber at 25 °C, 50-55% RH, and 14 hr light: 10 hr dark for 5 days.
# [4] = test system: cabbage looper (Trichoplusia ni); experiment: Insecticidal test for cabbage looper (leaf-dip, cabbage leaf discs); conditions: dipped cabbage leaf discs, 2nd instar larvae, 5 days, rating of % Control; for pest or weed control at 400 ppm: Trichoplusia ni, foliar, 120 h, read-out: CL, activity at 400 ppm against cabbage looper
# Method: as §1, §2
# [5] = test system: beet armyworm (Spodoptera exigua); experiment: Insecticidal test for beet armyworm (treated lepidopteran diet); conditions: 2nd instar larvae, 5 days, rating of % Control; for pest or weed control at 400 ppm: Spodoptera exigua, 120 h, read-out: BAW, activity at 400 ppm against beet armyworm
# Method: as §1, §2
# [6] = test system: cotton aphid (Aphis gossypii); experiment: Insecticidal test for cotton aphid (spray on infested squash cotyledons); conditions: 50 ppm spray, all life stages, 3 days, rating of % Control
# Method: Insecticidal test for cotton aphid (Aphis gossypii)
# To prepare spray solutions, 1 mg of each test compound was dissolved into 1 mL of a 90:10 acetone:ethanol solvent. This 1 mL of chemical solution was added to 19 mL of water containing 0.05% Tween 20 surfactant to produce a 50 ppm spray solution.
# Squash cotyledons were infested with cotton aphid (all life stages)16-20 hours prior to application of spray solution. The solution was sprayed on both sides of each infested squash cotyledon (0.5 mL x 2 each side) with a sweeping action until runoff. The plants were allowed to air dry and held for 3 days in a controlled room at 26 °C and 40% RH after which time the test was graded. Grading was by actual count using a dissecting microscope and comparison of test counts to the untreated check.
# [7] = foliar, 144 h, ovicide method, cotton leaf discs, 6 days, rating of % Control
# [8] = ovicide method, cotton leaf discs, 6 days, rating of % Control
smiles,measurement,setting,value
"Cc1cc(-c2ccc(C(F)(F)F)cc2)ccc1[C@H]1N=C(c2c(F)cccc2F)O[C@H]1C (mixture of isomers) [Compound 39, (4R,5S)- and (4S,5R)-2-(2,6-difluorophenyl)-5-methyl-4-[3-methyl-4'-(trifluoromethyl)-1,1'-biphenyl-4-yl]-4,5-dihydro-1,3-oxazole]",pest or weed control,[1]; [7],80 to 89%
same,pest or weed control at 200 ppm,[2],< 50%
same,pest or weed control at 400 ppm,[3],90 to 100%
same,pest or weed control at 400 ppm,[4],90 to 100%
same,pest or weed control at 400 ppm,[5],90 to 100%
"C[C@@H]1OC(c2c(F)cccc2Cl)=N[C@@H]1c1ccc(-c2ccc(C(F)(F)F)cc2)cc1 (mixture of isomers) [Compound 4, (4R,5S)- and (4S,5R)-2-(2-chloro-6-fluorophenyl)-5-methyl-4-[4'-(trifluoromethyl)-1,1'-biphenyl-4-yl]-4,5-dihydro-1,3-oxazole]",pest or weed control,[1]; [7],90 to 100%
same,"CA, activity at 50 ppm against cotton aphid",[6],A (90-100)
same,pest or weed control at 400 ppm,[3],90 to 100%
same,pest or weed control at 400 ppm,[4],90 to 100%
same,pest or weed control at 400 ppm,[5],90 to 100%
"C[C@@H]1OC(c2c(F)cccc2F)=N[C@@H]1c1ccc(I)cc1 (racemic) [Compound 1, (4R,5S)- and (4S,5R)-4-(4-iodorphenyl)-2-(2,6-difluorophenyl)-5-methyl-4,5-dihydro-1,3-oxazole]","SM, activity at 2.5 ppm against two-spotted spider mite","[1]; foliar, 144 h",A (90-100)
same,"CA, activity at 50 ppm against cotton aphid",[6],A (90-100)
"C[C@H]1OC(c2c(F)cccc2F)=N[C@H]1c1ccc(-c2ccc(OC(F)(F)F)cc2)cc1 (stereo in doubt) [Compound 49, (4S,5R)-2-(2,6-difluorophenyl)-5-methyl-4-[4'-(trifluoromethoxy)-1,1'-biphenyl-4-yl]-4,5-dihydro-1,3-oxazole]","SM, activity at 2.5 ppm against two-spotted spider mite",[1]; [8],A (90-100)
same,"WF, activity at 200 ppm against whitefly",[2],B (80-89)
same,"CL, activity at 400 ppm against cabbage looper",[4],A (90-100)
same,"BAW, activity at 400 ppm against beet armyworm",[5],A (90-100)
"C[C@H]1OC(c2c(F)cccc2F)=N[C@@H]1c1ccc(Br)cc1 (mixture of isomers) [Compound 24, (4R,5R)- and (4S,5S)-4-(4-bromophenyl)-2-(2,6-difluorophenyl)-5-methyl-4,5-dihydro-1,3-oxazole]",pest or weed control,[1]; [7],90 to 100%
same,"CA, activity at 50 ppm against cotton aphid",[6],A (90-100)
same,pest or weed control at 400 ppm,[3],< 50%
same,pest or weed control at 400 ppm,[4],< 50%
"C[C@@H]1OC(c2c(F)cccc2F)=N[C@H]1c1ccc(-c2ccc(C(F)(F)F)cc2F)cc1 (mixture of isomers) [Compound 32, (4S,5S)- and (4R,5R)-2-(2,6-difluorophenyl)-4-[2'-fluoro-4'-(trifluoromethyl)-1,1'-biphenyl-4-yl]-5-methyl-4,5-dihydro-1,3-oxazole]",pest or weed control,[1]; [7],70 to 79%
same,pest or weed control at 200 ppm,[2],< 50%
same,pest or weed control at 400 ppm,[3],90 to 100%
same,pest or weed control at 400 ppm,[4],90 to 100%
same,pest or weed control at 400 ppm,[5],90 to 100%
"C[C@H]1OC(c2c(F)cccc2F)=N[C@@H]1c1ccc(-c2ccc(OC(F)(F)F)cc2)cc1 (mixture of isomers) [Compound 27, (4R,5R)- and (4S,5S)-2-(2,6-difluorophenyl)-4-(4'-trifluoromethoxy-1,1'-biphenyl-4-yl)-5-methyl-4,5-dihydro-1,3-oxazole]",pest or weed control,[1]; [7],90 to 100%
same,"CA, activity at 50 ppm against cotton aphid",[6],E (50-59)
same,pest or weed control at 400 ppm,[3],80 to 89%
same,pest or weed control at 400 ppm,[4],90 to 100%
same,pest or weed control at 400 ppm,[5],90 to 100%
"C[C@@H]1OC(c2c(F)cccc2F)=N[C@@H]1c1ccc(-c2ccc(OC(F)(F)F)cc2)cc1 (stereo in doubt) [Compound 51, (4R,5S)-2-(2,6-difluorophenyl)-5-methyl-4-[4'-(trifluoromethoxy)-1,1'-biphenyl-4-yl]-4,5-dihydro-1,3-oxazole]",pest or weed control,[1]; [7],90 to 100%
same,"CA, activity at 50 ppm against cotton aphid",[6],F (less than 50)
same,pest or weed control at 400 ppm,[3],80 to 89%
same,pest or weed control at 400 ppm,[4],90 to 100%
same,pest or weed control at 400 ppm,[5],90 to 100%
"C[C@H]1OC(c2c(F)cccc2F)=N[C@@H]1c1ccc(-c2ccc(OC(F)(F)F)cc2)cc1 [Compound 53, (4R,5R)-2-(2,6-difluorophenyl)-5-methyl-4-[4'-(trifluoromethoxy)-1,1'-biphenyl-4-yl]-4,5-dihydro-1,3-oxazole]","SM, activity at 2.5 ppm against two-spotted spider mite",[1]; [8],A (90-100)
same,"CA, activity at 50 ppm against cotton aphid",[6],F (less than 50)
same,"TBW, activity at 400 ppm against tobacco budworm",[3],B (80-89)
same,"CL, activity at 400 ppm against cabbage looper",[4],A (90-100)
same,"BAW, activity at 400 ppm against beet armyworm",[5],A (90-100)
"C[C@H]1OC(c2c(F)cccc2F)=N[C@@H]1c1ccc(I)cc1 (mixture of isomers) [Compound 22, (4R, 5R)- and (4S,5S)-4-(4-iodophenyl)-2-(2,6-difluorophenyl)-5-methyl-4,5-dihydro-1,3-oxazole]",pest or weed control,[1]; [7],90 to 100%
same,"CA, activity at 50 ppm against cotton aphid",[6],A (90-100)
same,pest or weed control at 400 ppm,[4],< 50%
same,pest or weed control at 400 ppm,[5],90 to 100%
"CCOc1ccc(-c2ccc([C@@H]3N=C(c4c(F)cccc4F)O[C@H]3C)c(C)c2)cc1 (mixture of isomers) [Compound 45, (4S,5S)- and (4R,5R)-2-(2,6-difluorophenyl)-4-(4'-ethoxy-3-methyl-1,1'-biphenyl-4-yl)-5-methyl-4,5-dihydro-1,3-oxazole]",pest or weed control,[1]; [7],< 50%
same,pest or weed control at 400 ppm,[3],90 to 100%
same,pest or weed control at 400 ppm,[4],90 to 100%
same,pest or weed control at 400 ppm,[5],90 to 100%
"Cc1cc(Br)ccc1[C@H]1N=C(c2c(F)cccc2F)O[C@H]1C (mixture of isomers) [Compound 38, (4R,5S)- and (4S,5R)-4-(4-bromo-2-methylphenyl)-2-(2,6-difluorophenyl)-5-methyl-4,5-dihydro-1,3-oxazole]",pest or weed control,[1]; [7],60 to 69%
same,pest or weed control at 200 ppm,[2],< 50%
"C[C@@H]1OC(c2c(F)cccc2F)=N[C@H]1c1ccc(Br)cc1 [Compound 46, (4S,5S)-4-(4-bromophenyl)-2-(2,6-difluorophenyl)-5-methyl-4,5 dihydro-1,3-oxazole]",pest or weed control,[1]; [7],90 to 100%
same,"CA, activity at 50 ppm against cotton aphid",[6],A (90-100)
"C[C@@H]1OC(c2c(F)cccc2F)=N[C@H]1c1ccc(-c2ccc(F)cc2)cc1 (mixture of isomers) [Compound 25, (4S,5S)- and (4R,5R)-2-(2,6-difluorophenyl)-4-(4'-fluoro-1,1'-biphenyl-4-yl)-5-methyl-4,5-dihydro-1,3-oxazole]",pest or weed control,[1]; [7],90 to 100%
same,pest or weed control at 400 ppm,[3],90 to 100%
same,pest or weed control at 400 ppm,[4],90 to 100%
same,pest or weed control at 400 ppm,[5],90 to 100%
"Cc1cc(-c2ccc(C(F)(F)F)cc2)ccc1[C@@H]1N=C(c2c(F)cccc2F)O[C@H]1C (mixture of isomers) [Compound 43, (4S,5S) - and (4R,5R)-2-(2,6-difluorophenyl)-5-methyl-4-[3-methyl-4'-(trifluoromethyl)-1,1'-biphenyl-4-yl]-4,5-dihydro-1,3-oxazole]",pest or weed control at 200 ppm,[2],< 50%
same,pest or weed control at 400 ppm,[3],90 to 100%
same,pest or weed control at 400 ppm,[4],90 to 100%
same,pest or weed control at 400 ppm,[5],90 to 100%
